Source: US10829501B2 (BRISTOL-MYERS SQUIBB COMPANY, priority 2016, dated 2020)

What follows are compounds tested against ROCK2 (Homo sapiens, UniProt O75116) (assay: ROCK2 kinase inhibition assay (LABCHIP 3000 Reader, FITC peptide substrate);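 further: rho kinase reaction read by separating phosphorylated from unphosphorylated peptide on chip, with inhibition of kinase activity computed per concentration across a dose-response series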).
Chain of ROCK2 (O75116 whole entry, species assumed): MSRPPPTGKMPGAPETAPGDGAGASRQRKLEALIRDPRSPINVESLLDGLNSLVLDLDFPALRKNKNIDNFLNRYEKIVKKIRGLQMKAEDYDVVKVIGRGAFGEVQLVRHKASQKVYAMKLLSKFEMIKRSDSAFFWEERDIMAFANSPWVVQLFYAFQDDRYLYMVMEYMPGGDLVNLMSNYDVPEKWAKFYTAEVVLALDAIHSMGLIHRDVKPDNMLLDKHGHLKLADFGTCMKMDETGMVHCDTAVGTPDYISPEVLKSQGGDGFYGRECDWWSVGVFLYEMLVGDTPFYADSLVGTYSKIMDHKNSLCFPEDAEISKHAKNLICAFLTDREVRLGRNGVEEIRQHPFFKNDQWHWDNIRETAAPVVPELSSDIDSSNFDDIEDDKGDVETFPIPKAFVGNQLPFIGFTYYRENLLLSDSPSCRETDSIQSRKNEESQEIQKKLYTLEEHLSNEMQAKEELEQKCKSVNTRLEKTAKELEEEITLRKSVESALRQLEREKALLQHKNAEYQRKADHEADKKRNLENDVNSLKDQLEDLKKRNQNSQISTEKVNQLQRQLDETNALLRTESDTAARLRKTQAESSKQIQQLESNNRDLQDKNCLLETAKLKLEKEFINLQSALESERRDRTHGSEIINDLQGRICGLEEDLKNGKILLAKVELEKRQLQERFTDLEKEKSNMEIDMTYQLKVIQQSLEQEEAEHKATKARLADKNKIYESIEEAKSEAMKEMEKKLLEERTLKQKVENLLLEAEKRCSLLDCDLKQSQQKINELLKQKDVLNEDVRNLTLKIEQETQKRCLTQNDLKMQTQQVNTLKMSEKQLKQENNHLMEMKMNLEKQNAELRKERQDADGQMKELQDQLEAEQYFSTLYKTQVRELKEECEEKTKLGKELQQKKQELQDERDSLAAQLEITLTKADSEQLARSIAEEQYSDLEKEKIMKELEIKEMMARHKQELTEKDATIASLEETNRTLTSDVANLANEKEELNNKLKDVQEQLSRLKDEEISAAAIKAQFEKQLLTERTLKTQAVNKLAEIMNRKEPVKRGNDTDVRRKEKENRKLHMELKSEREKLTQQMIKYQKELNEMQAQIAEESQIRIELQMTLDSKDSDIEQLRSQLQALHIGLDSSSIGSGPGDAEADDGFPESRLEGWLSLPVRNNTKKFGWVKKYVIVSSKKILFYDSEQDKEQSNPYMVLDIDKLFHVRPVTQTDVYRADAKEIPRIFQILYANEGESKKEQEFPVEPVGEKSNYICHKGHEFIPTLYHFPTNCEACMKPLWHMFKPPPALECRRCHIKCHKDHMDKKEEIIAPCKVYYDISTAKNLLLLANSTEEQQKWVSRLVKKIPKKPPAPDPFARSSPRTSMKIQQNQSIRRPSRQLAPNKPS
With C[C@H](O)COc1ccc2c(C(=O)N[C@H]3CC4(C3)C[C@H](Oc3ncccc3C(N)=O)C4)cnn2c1 (stereo partly drawn) [Example 333, N-((aR)-6-((3-carbamoylpyridin-2-yl)oxy)spiro[3.3]heptan-2-yl)-6-((S)-2-hydroxypropoxy)pyrazolo[1,5-a]pyridine-3-carboxamide] the IC50 was 5 to 50 nM.
NC(=O)c1cccnc1O[C@H]1CC2(C[C@H](NC(=O)c3cnc4cc(C(F)(F)F)ccn34)C2)C1 (stereo partly drawn) [Example 334, N-((aR)-6-((3-carbamoylpyridin-2-yl)oxy)spiro[3.3]heptan-2-yl)-7-(trifluoromethyl)imidazo[1,2-a]pyridine-3-carboxamide] gave an IC50 of 50 to 250 nM.
Cc1ccn2c(C(=O)N[C@H]3CC4(C3)C[C@H](Oc3ncccc3C(N)=O)C4)cnc2c1 (stereo partly drawn) [Example 335, N-((aR)-6-((3-carbamoylpyridin-2-yl)oxy)spiro[3.3]heptan-2-yl)-7-methylimidazo[1,2-a]pyridine-3-carboxamide] was tested, and the IC50 was 5 to 50 nM.
CN1CCN(c2ccn3c(C(=O)N[C@H]4CC5(C4)C[C@H](Oc4ncccc4C(N)=O)C5)cnc3c2)CC1 (stereo partly drawn) [Example 336, N-((aR)-6-((3-carbamoylpyridin-2-yl)oxy)spiro[3.3]heptan-2-yl)-7-(4-methylpiperazin-1-yl)imidazo[1,2-a]pyridine-3-carboxamide] was tested, and the IC50 was 5 to 50 nM.
Cn1cc(-c2ccn3c(C(=O)N[C@H]4CC5(C4)C[C@H](Oc4ncccc4C(N)=O)C5)cnc3c2)cn1 (stereo partly drawn) [Example 337, N-((aR)-6-((3-carbamoylpyridin-2-yl)oxy)spiro[3.3]heptan-2-yl)-7-(1-methyl-1H-pyrazol-4-yl)imidazo[1,2-a]pyridine-3-carboxamide] gave an IC50 of 5 to 50 nM.
In the case of NC(=O)c1cccnc1O[C@H]1CC2(C[C@H](NC(=O)c3cnn4cc(OC5CCC5)ccc34)C2)C1 (stereo partly drawn) [Example 338, N-((aR)-6-((3-carbamoylpyridin-2-yl)oxy)spiro[3.3]heptan-2-yl)-6-cyclobutoxypyrazolo[1,5-a]pyridine-3-carboxamide], the IC50 is reported as 5 to 50 nM.
NC(=O)c1cccnc1O[C@H]1CC2(C[C@H](NC(=O)c3cnn4cc(OC5CCS(=O)(=O)CC5)ccc34)C2)C1 (stereo partly drawn) [Example 339, N-((aR)-6-((3-carbamoylpyridin-2-yl)oxy)spiro[3.3]heptan-2-yl)-6-((1,1-dioxidotetrahydro-2H-thiopyran-4-yl)oxy)pyrazolo[1,5-a]pyridine-3-carboxamide] was tested, and the IC50 was 5 to 50 nM.
With NC(=O)c1cccnc1O[C@H]1CC2(C[C@H](NC(=O)c3cnn4c(C5CC5)c(OCCOCC(F)(F)F)ccc34)C2)C1 (stereo partly drawn) [Example 340, N-((aR)-6-((3-carbamoylpyridin-2-yl)oxy)spiro[3.3]heptan-2-yl)-7-cyclopropyl-6-(2-(2,2,2-trifluoroethoxy)ethoxy)pyrazolo[1,5-a]pyridine-3-carboxamide] the IC50 was 5 to 50 nM.
With NC(=O)c1cccnc1O[C@H]1CC2(C[C@H](NC(=O)c3cnn4c(C5CC5)c(OC(CF)CF)ccc34)C2)C1 (stereo partly drawn) [Example 341, N-((aR)-6-((3-carbamoylpyridin-2-yl)oxy)spiro[3.3]heptan-2-yl)-7-cyclopropyl-6-((1,3-difluoropropan-2-yl)oxy)pyrazolo[1,5-a]pyridine-3-carboxamide] the IC50 was < 5 nM.
NC(=O)c1cccnc1O[C@H]1CC2(C[C@H](NC(=O)c3cnn4c(C5CC5)c(OCC5CCCO5)ccc34)C2)C1 (stereo partly drawn) [Example 342, N-((aR)-6-((3-carbamoylpyridin-2-yl)oxy)spiro[3.3]heptan-2-yl)-7-cyclopropyl-6-((tetrahydrofuran-2-yl)methoxy)pyrazolo[1,5-a]pyridine-3-carboxamide] was tested, and the IC50 was < 5 nM.
NC(=O)c1cccnc1O[C@H]1CC2(C[C@H](NC(=O)c3cnn4c(C5CC5)c(OC5COC5)ccc34)C2)C1 (stereo partly drawn) [Example 343, N-((aR)-6-((3-carbamoylpyridin-2-yl)oxy)spiro[3.3]heptan-2-yl)-7-cyclopropyl-6-(oxetan-3-yloxy)pyrazolo[1,5-a]pyridine-3-carboxamide] was tested, and the IC50 was 5 to 50 nM.
Compound NC(=O)c1cccnc1O[C@H]1CC2(C[C@H](NC(=O)c3cnn4c(C5CC5)c(OCC5CCO5)ccc34)C2)C1 (stereo partly drawn) [Example 344, N-((aR)-6-((3-carbamoylpyridin-2-yl)oxy)spiro[3.3]heptan-2-yl)-7-cyclopropyl-6-(oxetan-2-ylmethoxy)pyrazolo[1,5-a]pyridine-3-carboxamide] has an IC50 of 5 to 50 nM.
Compound NC(=O)c1cccnc1O[C@H]1CC2(C[C@H](NC(=O)c3cnc4cnccn34)C2)C1 (stereo partly drawn) [Example 345, N-((aR)-6-((3-carbamoylpyridin-2-yl)oxy)spiro[3.3]heptan-2-yl)imidazo[1,2-a]pyrazine-3-carboxamide] has an IC50 of 250 to 2500 nM.
With NC(=O)c1cccnc1O[C@H]1CC2(C[C@H](NC(=O)c3cnc4c(C(F)(F)F)cccn34)C2)C1 (stereo partly drawn) [Example 346, N-((aR)-6-((3-carbamoylpyridin-2-yl)oxy)spiro[3.3]heptan-2-yl)-8-(trifluoromethyl)imidazo[1,2-a]pyridine-3-carboxamide] the IC50 was 50 to 250 nM.
With COC(=O)N1CC(Oc2ccc3c(C(=O)N[C@H]4CC5(C4)C[C@H](Oc4ncccc4C(N)=O)C5)cnn3c2)C1 (stereo partly drawn) [Example 347, methyl 3-((3-(((aR)-6-((3-carbamoylpyridin-2-yl)oxy)spiro[3.3]heptan-2-yl)carbamoyl)pyrazolo[1,5-a]pyridin-6-yl)oxy)azetidine-1-carboxylate] the IC50 was 5 to 50 nM.
Compound COc1ccn2c(C(=O)N[C@H]3CC4(C3)C[C@H](Oc3ncccc3C(N)=O)C4)cnc2c1 (stereo partly drawn) [Example 348, N-((aR)-6-((3-carbamoylpyridin-2-yl)oxy)spiro[3.3]heptan-2-yl)-7-methoxyimidazo[1,2-a]pyridine-3-carboxamide] has an IC50 of 50 to 250 nM.
Work on NC(=O)c1cccnc1O[C@H]1CC2(C[C@H](NC(=O)c3cnn4cc(N5CC6(COC6)C5)ccc34)C2)C1 (stereo partly drawn) [Example 349, N-((aR)-6-((3-carbamoylpyridin-2-yl)oxy)spiro[3.3]heptan-2-yl)-6-(2-oxa-6-azaspiro[3.3]heptan-6-yl)pyrazolo[1,5-a]pyridine-3-carboxamide] yielded an IC50 of 5 to 50 nM.
NC(=O)c1cccnc1O[C@H]1CC2(C[C@H](NC(=O)c3cnn4cc(OC5CC(F)(F)C5)ccc34)C2)C1 (stereo partly drawn) [Example 350, N-((aR)-6-((3-carbamoylpyridin-2-yl)oxy)spiro[3.3]heptan-2-yl)-6-(3,3-difluorocyclobutoxy)pyrazolo[1,5-a]pyridine-3-carboxamide] showed an IC50 of 5 to 50 nM.
For NC(=O)c1cccnc1O[C@H]1CC2(C[C@H](NC(=O)c3cnn4c(C5CC5)c(OC5CCS(=O)(=O)CC5)ccc34)C2)C1 (stereo partly drawn) [Example 351, N-((aR)-6-((3-carbamoylpyridin-2-yl)oxy)spiro[3.3]heptan-2-yl)-7-cyclopropyl-6-((1,1-dioxidotetrahydro-2H-thiopyran-4-yl)oxy)pyrazolo[1,5-a]pyridine-3-carboxamide], the IC50 was < 5 nM.
For CS(=O)(=O)CCCOc1ccc2c(C(=O)N[C@H]3CC4(C3)C[C@H](Oc3ncccc3C(N)=O)C4)cnn2c1C1CC1 (stereo partly drawn) [Example 352, N-((aR)-6-((3-carbamoylpyridin-2-yl)oxy)spiro[3.3]heptan-2-yl)-7-cyclopropyl-6-(3-(methylsulfonyl)propoxy)pyrazolo[1,5-a]pyridine-3-carboxamide], the IC50 was 5 to 50 nM.
With N#Cc1ccn2c(C(=O)N[C@H]3CC4(C3)C[C@H](Oc3ncccc3C(N)=O)C4)cnc2c1 (stereo partly drawn) [Example 353, N-((aR)-6-((3-carbamoylpyridin-2-yl)oxy)spiro[3.3]heptan-2-yl)-7-cyanoimidazo[1,2-a]pyridine-3-carboxamide] the IC50 was 50 to 250 nM.
In the case of N#Cc1cccn2c(C(=O)N[C@H]3CC4(C3)C[C@H](Oc3ncccc3C(N)=O)C4)cnc12 (stereo partly drawn) [Example 354, N-((aR)-6-((3-carbamoylpyridin-2-yl)oxy)spiro[3.3]heptan-2-yl)-8-cyanoimidazo[1,2-a]pyridine-3-carboxamide], the IC50 is reported as 50 to 250 nM.
NC(=O)c1cccnc1O[C@H]1CC2(C[C@H](NC(=O)c3cnn4cc(N5CC(CO)(CO)C5)ccc34)C2)C1 (stereo partly drawn) [Example 355] showed an IC50 of 50 to 250 nM.
NC(=O)c1cccnc1O[C@H]1CC2(C[C@H](NC(=O)c3cnc4cc(N5CCOCC5)ccn34)C2)C1 (stereo partly drawn) [Example 356, N-((aR)-6-((3-carbamoylpyridin-2-yl)oxy)spiro[3.3]heptan-2-yl)-7-morpholinoimidazo[1,2-a]pyridine-3-carboxamide] showed an IC50 of 5 to 50 nM.
With Cn1cc(-c2ccc3c(C(=O)N[C@H]4CC5(C4)C[C@H](Oc4ncccc4C(N)=O)C5)cnn3c2C2CC2)cn1 (stereo partly drawn) [Example 357, N-((aR)-6-((3-carbamoylpyridin-2-yl)oxy)spiro[3.3]heptan-2-yl)-7-cyclopropyl-6-(1-methyl-1H-pyrazol-4-yl)pyrazolo[1,5-a]pyridine-3-carboxamide] the IC50 was < 5 nM.
In the case of NC(=O)c1cccnc1O[C@H]1CC2(C[C@H](NC(=O)c3cnc4cc(NCC(F)F)ccn34)C2)C1 (stereo partly drawn) [Example 358, N-((aR)-6-((3-carbamoylpyridin-2-yl)oxy)spiro[3.3]heptan-2-yl)-7-((2,2-difluoroethyl)amino)imidazo[1,2-a]pyridine-3-carboxamide], the IC50 is reported as 5 to 50 nM.
For [H][C@]1(Oc2ncccc2C(N)=O)C[C@@]2(C[C@H](NC(=O)c3cnc4cc(N5CC(N)C5)ccn34)C2)C1 (stereo partly drawn) [Example 359, 7-(3-aminoazetidin-1-yl)-N-((aR)-6-((3-carbamoylpyridin-2-yl)oxy)spiro[3.3]heptan-2-yl)imidazo[1,2-a]pyridine-3-carboxamide], the IC50 was 50 to 250 nM.
With NC(=O)c1cccnc1O[C@H]1CC2(C[C@H](NC(=O)c3cnc4cc(OC5CC(F)(F)C5)ccn34)C2)C1 (stereo partly drawn) [Example 360, N-((aR)-6-((3-carbamoylpyridin-2-yl)oxy)spiro[3.3]heptan-2-yl)-7-(3,3-difluorocyclobutoxy)imidazo[1,2-a]pyridine-3-carboxamide] the IC50 was 5 to 50 nM.
[H][C@]1(Oc2ncccc2C(N)=O)C[C@@]2(C[C@H](NC(=O)c3cnc4cc(Cl)ccn34)C2)C1 (stereo partly drawn) [Example 361, N-((aR)-6-((3-carbamoylpyridin-2-yl)oxy)spiro[3.3]heptan-2-yl)-7-chloroimidazo[1,2-a]pyridine-3-carboxamide] gave an IC50 of 50 to 250 nM.
Compound NC(=O)c1cccnc1O[C@H]1CC2(C[C@H](NC(=O)c3cnc4cc(N5CCS(=O)(=O)CC5)ccn34)C2)C1 (stereo partly drawn) [Example 362, N-((aR)-6-((3-carbamoylpyridin-2-yl)oxy)spiro[3.3]heptan-2-yl)-7-(1,1-dioxidothiomorpholino)imidazo[1,2-a]pyridine-3-carboxamide] has an IC50 of 50 to 250 nM.
